This is an account of results in ChEMBL document CHEMBL1201862, “PubChem BioAssay data set” (2004).

Assay [1] in a line: Intein inhibitors as potential Tuberculosis drugs, a cytotoxicity screen. [Related pubchem assays (depositor defined):AID2221, AID2223, AID434968, AID435010, AID449749, AID449750, AID489010]. It is filed as functional.
Assay [2] deals with Vero. Description: viability of Vero cells under compound – cytotoxicity control for flavivirus capping enzyme inhibitors (AID 588742). The class given is functional. Conditions: Chlorocebus sabaeus.
Assay [3] concerns the target T1, Protein RecA (Mycobacterium tuberculosis, UniProt P9WHJ3).
T1 sequence (P9WHJ3 whole entry): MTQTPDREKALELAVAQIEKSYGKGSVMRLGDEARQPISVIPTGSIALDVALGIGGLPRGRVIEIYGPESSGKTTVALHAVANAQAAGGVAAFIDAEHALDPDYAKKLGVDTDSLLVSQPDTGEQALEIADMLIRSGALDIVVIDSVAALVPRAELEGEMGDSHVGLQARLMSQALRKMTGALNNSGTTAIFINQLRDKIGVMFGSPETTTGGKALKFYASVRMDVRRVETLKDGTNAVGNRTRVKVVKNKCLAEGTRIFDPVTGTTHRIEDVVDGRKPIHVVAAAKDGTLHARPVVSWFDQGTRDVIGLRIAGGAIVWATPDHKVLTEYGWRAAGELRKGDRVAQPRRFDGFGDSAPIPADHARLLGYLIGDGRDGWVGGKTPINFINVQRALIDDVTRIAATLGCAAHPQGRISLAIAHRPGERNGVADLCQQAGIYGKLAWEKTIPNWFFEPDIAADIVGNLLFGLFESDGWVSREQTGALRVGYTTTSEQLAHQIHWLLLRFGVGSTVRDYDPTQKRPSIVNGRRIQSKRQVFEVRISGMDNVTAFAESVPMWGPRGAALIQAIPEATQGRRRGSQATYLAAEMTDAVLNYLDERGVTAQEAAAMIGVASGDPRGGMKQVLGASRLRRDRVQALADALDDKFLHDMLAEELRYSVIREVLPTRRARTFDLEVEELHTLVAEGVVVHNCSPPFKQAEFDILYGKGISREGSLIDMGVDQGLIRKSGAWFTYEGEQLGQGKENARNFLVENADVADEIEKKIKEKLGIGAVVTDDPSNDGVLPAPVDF
Description: Fluorescence Cell-Free Homogeneous Dose Retest to Identify Inhibitors of RecA-Intein Splicing Activity. [Related pubchem assays (depositor defined):AID2097, AID2223, AID489010, AID492950]. It is filed as functional.

The target in assay [4] is T2, Histone-lysine N-methyltransferase NSD2 (Homo sapiens, UniProt O96028).
T2 sequence (O96028 whole entry): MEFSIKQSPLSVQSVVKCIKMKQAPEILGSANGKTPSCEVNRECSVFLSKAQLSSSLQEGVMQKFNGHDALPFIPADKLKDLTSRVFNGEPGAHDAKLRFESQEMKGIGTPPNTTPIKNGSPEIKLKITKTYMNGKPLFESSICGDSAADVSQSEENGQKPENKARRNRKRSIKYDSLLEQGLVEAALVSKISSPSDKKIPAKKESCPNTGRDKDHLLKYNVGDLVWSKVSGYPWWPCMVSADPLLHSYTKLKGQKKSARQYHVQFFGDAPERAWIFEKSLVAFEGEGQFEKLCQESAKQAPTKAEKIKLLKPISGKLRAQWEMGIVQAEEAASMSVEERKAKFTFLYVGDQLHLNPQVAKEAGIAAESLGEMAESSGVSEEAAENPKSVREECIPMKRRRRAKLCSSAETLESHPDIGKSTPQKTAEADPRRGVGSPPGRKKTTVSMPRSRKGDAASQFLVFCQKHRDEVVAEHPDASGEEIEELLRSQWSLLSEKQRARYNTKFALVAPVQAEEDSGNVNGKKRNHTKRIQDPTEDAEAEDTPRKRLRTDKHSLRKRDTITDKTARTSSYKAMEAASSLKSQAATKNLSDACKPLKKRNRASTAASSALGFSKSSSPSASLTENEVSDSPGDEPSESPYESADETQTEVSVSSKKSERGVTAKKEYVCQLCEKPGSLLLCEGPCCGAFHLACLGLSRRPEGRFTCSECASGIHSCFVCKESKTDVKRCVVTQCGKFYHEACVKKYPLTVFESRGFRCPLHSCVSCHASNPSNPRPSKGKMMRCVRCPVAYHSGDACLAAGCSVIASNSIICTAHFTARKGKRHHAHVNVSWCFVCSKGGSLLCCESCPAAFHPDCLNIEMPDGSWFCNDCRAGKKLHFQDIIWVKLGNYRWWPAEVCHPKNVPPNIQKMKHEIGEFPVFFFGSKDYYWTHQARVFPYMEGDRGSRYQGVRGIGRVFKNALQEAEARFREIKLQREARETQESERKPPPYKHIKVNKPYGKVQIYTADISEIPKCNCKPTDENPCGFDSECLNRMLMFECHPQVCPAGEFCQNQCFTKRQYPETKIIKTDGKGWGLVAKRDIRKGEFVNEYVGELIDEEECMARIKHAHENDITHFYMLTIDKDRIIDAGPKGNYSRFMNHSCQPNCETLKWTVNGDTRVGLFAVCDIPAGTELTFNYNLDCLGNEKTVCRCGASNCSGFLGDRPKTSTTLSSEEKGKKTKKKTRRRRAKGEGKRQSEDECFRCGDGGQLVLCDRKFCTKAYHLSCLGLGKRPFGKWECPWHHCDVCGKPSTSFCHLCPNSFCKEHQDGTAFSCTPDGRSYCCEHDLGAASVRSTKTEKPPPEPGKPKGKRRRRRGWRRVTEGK
The class given is biochemical.

Assay [5] can be described thus: cells. The class given is functional, cell-based.
For assay [6], the target named is ATP-dependent molecular chaperone HSP82 (Candida albicans (strain WO-1) (Yeast), UniProt C4YTQ8). Description: steroid-induced GRE reporter decrease in yeast – S. cerevisiae, luminescence, Hsp90 inhibitor project, dose response (AID 2400).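 Note: beta-galactosidase luminescence from glucocorticoid response element reporter as proxy for Hsp90 function; inhibitor potency where signal loss means Hsp90 inhibition.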 The class given is functional, cell-based.
For assay [7], the target named is Mitogen-activated protein kinase kinase kinase kinase 4 (Homo sapiens, UniProt O95819). It is filed as functional.
Assay [8] has as its target 5'-AMP-activated protein kinase catalytic subunit alpha-1 (Homo sapiens, UniProt Q13131). It is filed as functional.
For assay [9], the target named is Macrophage-stimulating protein receptor (Homo sapiens, UniProt Q04912). Description: Navigating the Kinome. Panel member name: MST1R. It is filed as functional.
The target of assay [10] is Aurora kinase A (Homo sapiens, UniProt O14965). It is filed as functional.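 Note: value from the Navigating the Kinome kinase panel profiling, panel entry STK6.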
Assay [11] deals with Mitogen-activated protein kinase 9 (Homo sapiens, UniProt P45984). It is filed as functional.
The target of assay [12] is Inhibitor of nuclear factor kappa-B kinase subunit epsilon (Homo sapiens, UniProt Q14164). Put plainly: Navigating the Kinome. Panel member name: IKBKE. The class given is functional.
Assay [13] has as its target Fibroblast growth factor receptor 1 (Homo sapiens, UniProt P11362). The class given is functional.
Assay [14] has as its target ALK tyrosine kinase receptor (Homo sapiens, UniProt Q9UM73). It is filed as functional.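 Note: ALK tested as one member of a kinase panel screen.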
Assay [15] concerns the target Vascular endothelial growth factor receptor 1 (Homo sapiens, UniProt P17948). The class given is functional.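 Note: measured within a kinome-wide profiling panel, FLT1 as the panel member.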

Calls of active or inactive are those of the source. Where only a bound is given, the exact number is not on record here.

Sequence of ALK tyrosine kinase receptor (Q9UM73 whole entry): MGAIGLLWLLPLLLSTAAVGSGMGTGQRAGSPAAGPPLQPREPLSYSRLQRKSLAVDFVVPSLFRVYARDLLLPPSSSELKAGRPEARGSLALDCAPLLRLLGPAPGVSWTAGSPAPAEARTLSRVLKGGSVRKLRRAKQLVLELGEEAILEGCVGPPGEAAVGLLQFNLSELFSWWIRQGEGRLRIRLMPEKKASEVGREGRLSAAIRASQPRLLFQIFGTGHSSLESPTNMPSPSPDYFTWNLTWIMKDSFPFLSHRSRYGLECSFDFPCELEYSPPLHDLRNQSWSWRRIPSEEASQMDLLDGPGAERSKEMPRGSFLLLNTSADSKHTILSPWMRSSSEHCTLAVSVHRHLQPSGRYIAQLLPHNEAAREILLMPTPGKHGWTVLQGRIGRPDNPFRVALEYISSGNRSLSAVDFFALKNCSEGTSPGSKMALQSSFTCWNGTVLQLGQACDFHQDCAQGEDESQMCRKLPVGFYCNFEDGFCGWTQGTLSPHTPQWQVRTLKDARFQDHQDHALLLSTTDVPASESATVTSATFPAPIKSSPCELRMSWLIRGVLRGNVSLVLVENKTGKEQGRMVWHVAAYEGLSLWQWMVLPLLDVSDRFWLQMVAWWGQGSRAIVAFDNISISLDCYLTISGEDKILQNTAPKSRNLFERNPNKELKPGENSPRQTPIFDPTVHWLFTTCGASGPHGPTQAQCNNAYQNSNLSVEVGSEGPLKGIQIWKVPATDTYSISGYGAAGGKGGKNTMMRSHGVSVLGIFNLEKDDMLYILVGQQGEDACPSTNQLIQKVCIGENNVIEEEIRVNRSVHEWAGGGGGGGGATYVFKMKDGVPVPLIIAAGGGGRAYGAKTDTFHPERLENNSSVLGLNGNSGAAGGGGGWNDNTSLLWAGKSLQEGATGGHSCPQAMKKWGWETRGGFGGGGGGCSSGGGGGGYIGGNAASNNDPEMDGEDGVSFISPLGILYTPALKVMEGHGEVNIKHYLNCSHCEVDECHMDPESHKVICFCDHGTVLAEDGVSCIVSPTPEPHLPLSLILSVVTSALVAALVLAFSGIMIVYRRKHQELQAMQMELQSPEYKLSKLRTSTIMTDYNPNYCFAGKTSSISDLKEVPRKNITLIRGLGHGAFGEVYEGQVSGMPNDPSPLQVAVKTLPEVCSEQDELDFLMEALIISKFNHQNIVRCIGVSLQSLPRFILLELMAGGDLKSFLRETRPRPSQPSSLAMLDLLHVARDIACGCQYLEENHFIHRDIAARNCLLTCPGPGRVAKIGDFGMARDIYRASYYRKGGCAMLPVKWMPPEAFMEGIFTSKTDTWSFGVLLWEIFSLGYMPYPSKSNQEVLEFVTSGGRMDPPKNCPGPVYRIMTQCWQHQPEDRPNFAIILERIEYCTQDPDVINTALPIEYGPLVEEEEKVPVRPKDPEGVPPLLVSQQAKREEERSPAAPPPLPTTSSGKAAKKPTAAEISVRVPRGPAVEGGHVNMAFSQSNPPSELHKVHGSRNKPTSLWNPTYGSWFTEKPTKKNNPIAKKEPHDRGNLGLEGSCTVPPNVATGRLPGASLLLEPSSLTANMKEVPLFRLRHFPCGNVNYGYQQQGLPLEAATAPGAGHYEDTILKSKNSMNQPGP
Sequence of Mitogen-activated protein kinase 9 (P45984 whole entry): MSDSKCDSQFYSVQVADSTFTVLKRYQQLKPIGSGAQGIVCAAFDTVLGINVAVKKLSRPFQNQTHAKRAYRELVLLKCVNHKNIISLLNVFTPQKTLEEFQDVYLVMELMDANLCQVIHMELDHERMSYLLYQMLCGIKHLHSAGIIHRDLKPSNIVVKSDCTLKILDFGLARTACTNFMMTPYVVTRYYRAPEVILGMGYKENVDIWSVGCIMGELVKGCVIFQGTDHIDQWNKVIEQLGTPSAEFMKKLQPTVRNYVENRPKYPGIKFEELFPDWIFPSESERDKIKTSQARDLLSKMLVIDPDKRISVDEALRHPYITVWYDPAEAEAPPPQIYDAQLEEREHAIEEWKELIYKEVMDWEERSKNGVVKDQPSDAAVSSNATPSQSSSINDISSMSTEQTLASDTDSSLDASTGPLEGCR
Sequence of Fibroblast growth factor receptor 1 (P11362 whole entry): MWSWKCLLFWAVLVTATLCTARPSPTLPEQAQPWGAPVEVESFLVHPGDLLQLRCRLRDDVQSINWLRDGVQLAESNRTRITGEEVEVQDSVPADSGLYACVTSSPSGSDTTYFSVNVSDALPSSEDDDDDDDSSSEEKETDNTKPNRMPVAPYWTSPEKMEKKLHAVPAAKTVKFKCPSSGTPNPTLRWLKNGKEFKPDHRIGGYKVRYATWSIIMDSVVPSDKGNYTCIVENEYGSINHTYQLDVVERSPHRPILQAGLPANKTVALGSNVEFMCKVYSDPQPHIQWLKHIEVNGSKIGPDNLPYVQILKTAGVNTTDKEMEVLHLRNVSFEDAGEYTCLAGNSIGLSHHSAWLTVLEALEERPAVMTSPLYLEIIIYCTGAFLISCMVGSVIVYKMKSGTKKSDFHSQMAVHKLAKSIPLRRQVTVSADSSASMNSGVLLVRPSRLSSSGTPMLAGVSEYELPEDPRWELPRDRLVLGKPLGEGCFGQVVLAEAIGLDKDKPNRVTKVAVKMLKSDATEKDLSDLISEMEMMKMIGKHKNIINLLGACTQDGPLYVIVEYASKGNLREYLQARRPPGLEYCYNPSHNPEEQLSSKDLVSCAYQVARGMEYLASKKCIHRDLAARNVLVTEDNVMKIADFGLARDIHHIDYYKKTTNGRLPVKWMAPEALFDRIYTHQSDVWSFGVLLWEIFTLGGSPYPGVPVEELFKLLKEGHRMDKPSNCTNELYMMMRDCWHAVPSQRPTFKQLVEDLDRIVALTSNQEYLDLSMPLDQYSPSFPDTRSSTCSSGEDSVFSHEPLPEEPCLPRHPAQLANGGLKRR
Sequence of Inhibitor of nuclear factor kappa-B kinase subunit epsilon (Q14164 whole entry): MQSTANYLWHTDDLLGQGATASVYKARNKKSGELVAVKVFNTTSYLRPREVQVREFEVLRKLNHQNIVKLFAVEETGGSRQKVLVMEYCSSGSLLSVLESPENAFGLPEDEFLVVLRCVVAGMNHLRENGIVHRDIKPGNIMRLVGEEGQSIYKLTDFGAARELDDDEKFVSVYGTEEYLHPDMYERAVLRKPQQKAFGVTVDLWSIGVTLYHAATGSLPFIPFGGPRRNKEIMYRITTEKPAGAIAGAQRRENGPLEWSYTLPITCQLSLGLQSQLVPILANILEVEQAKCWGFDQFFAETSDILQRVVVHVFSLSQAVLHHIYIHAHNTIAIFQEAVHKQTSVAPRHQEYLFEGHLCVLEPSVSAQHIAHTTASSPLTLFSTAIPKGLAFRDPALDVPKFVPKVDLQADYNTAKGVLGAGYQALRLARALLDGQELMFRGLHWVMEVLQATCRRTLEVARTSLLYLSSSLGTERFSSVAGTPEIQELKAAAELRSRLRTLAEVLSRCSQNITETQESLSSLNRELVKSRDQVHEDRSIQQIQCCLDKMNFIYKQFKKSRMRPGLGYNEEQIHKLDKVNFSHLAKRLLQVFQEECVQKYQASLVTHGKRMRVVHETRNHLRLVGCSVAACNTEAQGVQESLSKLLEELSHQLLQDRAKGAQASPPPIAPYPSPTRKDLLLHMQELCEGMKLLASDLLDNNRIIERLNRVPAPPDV
Sequence of Vascular endothelial growth factor receptor 1 (P17948 whole entry): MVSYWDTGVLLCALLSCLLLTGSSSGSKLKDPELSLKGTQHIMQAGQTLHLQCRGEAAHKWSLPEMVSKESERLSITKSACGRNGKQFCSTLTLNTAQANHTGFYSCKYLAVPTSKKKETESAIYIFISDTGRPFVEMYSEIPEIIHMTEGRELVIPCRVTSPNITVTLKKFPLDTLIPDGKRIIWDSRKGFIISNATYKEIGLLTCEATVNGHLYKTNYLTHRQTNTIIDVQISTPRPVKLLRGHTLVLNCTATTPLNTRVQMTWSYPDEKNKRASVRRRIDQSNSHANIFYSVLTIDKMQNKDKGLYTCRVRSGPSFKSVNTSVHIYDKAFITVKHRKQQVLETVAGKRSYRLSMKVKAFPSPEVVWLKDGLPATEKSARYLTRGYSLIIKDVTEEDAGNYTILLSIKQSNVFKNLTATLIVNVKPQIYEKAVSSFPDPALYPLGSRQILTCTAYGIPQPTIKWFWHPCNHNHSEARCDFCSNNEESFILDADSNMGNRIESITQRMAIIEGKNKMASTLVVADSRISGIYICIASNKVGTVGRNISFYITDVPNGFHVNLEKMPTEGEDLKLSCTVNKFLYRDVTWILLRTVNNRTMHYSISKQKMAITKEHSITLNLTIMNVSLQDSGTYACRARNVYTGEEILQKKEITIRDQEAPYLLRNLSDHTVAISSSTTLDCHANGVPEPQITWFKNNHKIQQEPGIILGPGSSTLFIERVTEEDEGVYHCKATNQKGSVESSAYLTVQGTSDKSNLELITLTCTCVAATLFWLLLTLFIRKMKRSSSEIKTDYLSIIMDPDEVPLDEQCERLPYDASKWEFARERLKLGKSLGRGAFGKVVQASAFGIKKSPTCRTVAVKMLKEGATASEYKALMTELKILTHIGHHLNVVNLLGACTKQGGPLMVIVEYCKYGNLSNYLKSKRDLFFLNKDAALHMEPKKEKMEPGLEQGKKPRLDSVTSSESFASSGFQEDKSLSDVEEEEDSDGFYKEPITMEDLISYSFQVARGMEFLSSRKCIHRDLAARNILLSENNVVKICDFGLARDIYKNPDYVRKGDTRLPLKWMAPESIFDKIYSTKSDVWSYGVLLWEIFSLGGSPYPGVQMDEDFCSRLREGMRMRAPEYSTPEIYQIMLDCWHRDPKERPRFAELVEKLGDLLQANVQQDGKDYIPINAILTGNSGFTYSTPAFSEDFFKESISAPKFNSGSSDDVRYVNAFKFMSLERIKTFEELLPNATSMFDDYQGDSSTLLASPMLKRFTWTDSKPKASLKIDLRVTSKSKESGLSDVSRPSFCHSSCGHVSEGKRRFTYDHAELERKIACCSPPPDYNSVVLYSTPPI

As to `O=C(NC1=C(NC2CCS(=O)(=O)C2)C(=O)c2ccccc2C1=O)c1ccccc1` (stereo not given), the CC50 (usually the concentration giving 50% cytotoxicity) in assay [1] is 5.15 µM (active); in [2], 7.48 µM (active). Besides, the EC50 – broadly, the concentration giving half of the maximal effect – in [3] was 0.101 µM (active). Besides, in [4], the AC50 (in general, the midpoint of the concentration-response curve, whichever way the signal moves) is > 20 µM (inactive).
With `CCCC(=O)NC(c1ccc(N(C)C)cc1)c1ccc2cccnc2c1O` (stereo not given), the EC50 in [5] is > 350 µM (not active); in assay [6] it was > 160 µM (inactive).
Take `O=C1NC(=O)C(c2c[nH]c3ccccc23)=C1c1nc(N2CCNCC2)nc2ccccc12`: the Ki (as a rule, a measure of affinity in units of concentration, obtained from inhibition or displacement) was 0.2 µM (active) in assay [7]; 0.2 µM (active) in assay [8]; 0.1 µM (active) in assay [9]; > 1.58 µM (inactive) in assay [10]; > 3.98 µM (inactive) in assay [11]; > 3.16 µM (inactive) in [12]. In addition, the Ki in assay [13] was > 2.51 µM (inactive); in assay [14], 3.98 µM (active); in assay [15], > 2.51 µM (inactive).
